Tests used:
Format in all cases: in vivo
[1] = tested on: upland rice (Oryza sp., var. Tebonnet, RICE); assay: Post-emerge test, crop safety; conditions: phytotoxicity rating 0-100 (0 no damage, 100 complete death), 14 days after application
Outline: (§1)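 Plants grown in 10 cm pots of sandy loam mix received acetone-dissolved compounds through a moving flat-fan nozzle. Doses ranged from 15 to 1000 g ai/ha. Pre-emerge pots were seeded one day earlier, post-emerge pots 8–21 days earlier. Fourteen days on, each pot was graded 0–100 for damage.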

[2] = tested on: field corn (Zea mays L., var. Dekalb 535, CORN); assay: Post-emerge test, crop safety; conditions: phytotoxicity rating 0-100 (0 no damage, 100 complete death), 14 days after application
Outline: as §1

[3] = tested on: sicklepod (Cassia obtusifolia, CASOB); assay: Post-emerge test, greenhouse herbicide activity screening; conditions: phytotoxicity rating 0-100 (0 no damage, 100 complete death), 14 days after application
Outline: (§2)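 Visual ratings on a 0-100 scale (0 no damage, 100 all plants dead) were taken at 14 days after treatment. Rates of 15-1000 g ai/ha in acetone, 187 l/ha, were sprayed onto soil one day after planting (pre-emerge) or onto 2-3 leaf plants with 0.25% v/v surfactant (post-emerge).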

[4] = tested on: green foxtail (Setaria viridis, SETVI); assay: as above; conditions: phytotoxicity rating 0-100 (0 no damage, 100 complete death), 14 days after application
Outline: as §2

[5] = tested on: common ragweed (Ambrosia artemisizfolia L., AMBEL); assay: as above; conditions: phytotoxicity rating 0-100 (0 no damage, 100 complete death), 14 days after application
Outline: as §2

[6] = tested on: redroot pigweed (Amaranthus retroflexus, AMARE); assay: as above; conditions: phytotoxicity rating 0-100 (0 no damage, 100 complete death), 14 days after application
Outline: as §2

[7] = tested on: large crabgrass (Digitaria sanguinalis, DIGSA); assay: as above; conditions: phytotoxicity rating 0-100 (0 no damage, 100 complete death), 14 days after application
Outline: as §2

[8] = tested on: lambsquarters (Chenopodium album, CHEAL); assay: as above; conditions: phytotoxicity rating 0-100 (0 no damage, 100 complete death), 14 days after application
Outline: as §2

[9] = tested on: johnsongrass (Sorghum halepense, SORHA); assay: as above; conditions: phytotoxicity rating 0-100 (0 no damage, 100 complete death), 14 days after application
Outline: as §2

[10] = tested on: ivyleaf morningglory (Ipomoea hederacea, IPOHE); assay: as above; conditions: phytotoxicity rating 0-100 (0 no damage, 100 complete death), 14 days after application
Outline: as §2

[11] = tested on: velvetleaf (Abutilon theophrasti, ABUTH); assay: as above; conditions: phytotoxicity rating 0-100 (0 no damage, 100 complete death), 14 days after application
Outline: as §2

[12] = tested on: barnyardgrass (Echinochloa crus-galli, ECHCG); assay: as above; conditions: phytotoxicity rating 0-100 (0 no damage, 100 complete death), 14 days after application
Outline: as §2

[13] = tested on: sicklepod (Cassia obtusifolia, CASOB); assay: Pre-emerge test, greenhouse herbicide activity screening; conditions: pre-emerge, rated 14 days after application, 0 = no damage, 100 = complete death
Outline: (§3)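 Rating: 0–100 visual injury, 14 DAA. Application: acetone, 187 l/ha, 15–1000 g ai/ha, flat-fan track sprayer with nozzle 40–45 cm above soil or canopy. Post-emerge runs used 0.25% v/v surfactant on 2–3 leaf plants.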

[14] = tested on: green foxtail (Setaria viridis, SETVI); assay: as above; conditions: pre-emerge, rated 14 days after application, 0 = no damage, 100 = complete death
Outline: as §3

[15] = tested on: common ragweed (Ambrosia artemisizfolia L., AMBEL); assay: as above; conditions: pre-emerge, rated 14 days after application, 0 = no damage, 100 = complete death
Outline: as §3

[16] = tested on: large crabgrass (Digitaria sanguinalis, DIGSA); assay: as above; conditions: pre-emerge, rated 14 days after application, 0 = no damage, 100 = complete death
Outline: as §3

[17] = tested on: lambsquarters (Chenopodium album, CHEAL); assay: as above; conditions: pre-emerge, rated 14 days after application, 0 = no damage, 100 = complete death
Outline: as §3

[18] = tested on: johnsongrass (Sorghum halepense, SORHA); assay: as above; conditions: pre-emerge, rated 14 days after application, 0 = no damage, 100 = complete death
Outline: as §3

[19] = tested on: ivyleaf morningglory (Ipomoea hederacea, IPOHE); assay: as above; conditions: pre-emerge, rated 14 days after application, 0 = no damage, 100 = complete death
Outline: as §3

[20] = tested on: velvetleaf (Abutilon theophrasti, ABUTH); assay: as above; conditions: pre-emerge, rated 14 days after application, 0 = no damage, 100 = complete death
Outline: as §3

[21] = tested on: barnyardgrass (Echinochloa crus-galli, ECHCG); assay: as above; conditions: pre-emerge, rated 14 days after application, 0 = no damage, 100 = complete death
Outline: as §3

[22] = tested on: redroot pigweed (Amaranthus retroflexus, AMARE); assay: as above; conditions: pre-emerge, rated 14 days after application, 0 = no damage, 100 = complete death
Outline: as §1

[23] = tested on: upland rice (Oryza sp., var. Tebonnet, RICE); assay: Pre-emerge test, crop safety; conditions: pre-emerge, rated 14 days after application, 0 = no damage, 100 = complete death
Outline: as §1

[24] = tested on: field corn (Zea mays L., var. Dekalb 535, CORN); assay: Pre-emerge test, crop safety; conditions: pre-emerge, rated 14 days after application, 0 = no damage, 100 = complete death
Outline: as §1

COc1c(Cl)cc(F)c(-n2c(=O)cc(C(F)(F)F)n(C)c2=O)c1NS(=O)(=O)c1ccc(C)cc1 [2-26]
0: Post-emerge Herbicidal Activity RICE (crop damage) ([1]; 63 g ai/ha) | Post-emerge Herbicidal Activity RICE (crop damage) ([1]; 250 g ai/ha) | Post-emerge Herbicidal Activity CORN (crop damage) ([2]; 63 g ai/ha) | Post-emerge Herbicidal Activity CORN (crop damage) ([2]; 250 g ai/ha) | Post-emerge Herbicidal Activity CASOB ([3]; 63 g ai/ha) | Post-emerge Herbicidal Activity CASOB ([3]; 250 g ai/ha) | Post-emerge Herbicidal Activity SETVI ([4]; 63 g ai/ha) | Post-emerge Herbicidal Activity SETVI ([4]; 250 g ai/ha) | Post-emerge Herbicidal Activity AMBEL ([5]; 63 g ai/ha) | Post-emerge Herbicidal Activity AMBEL ([5]; 250 g ai/ha) | Post-emerge Herbicidal Activity AMARE ([6]; 63 g ai/ha) | Post-emerge Herbicidal Activity DIGSA ([7]; 63 g ai/ha) | Post-emerge Herbicidal Activity DIGSA ([7]; 250 g ai/ha) | Post-emerge Herbicidal Activity CHEAL ([8]; 63 g ai/ha) | Post-emerge Herbicidal Activity SORHA ([9]; 63 g ai/ha) | Post-emerge Herbicidal Activity SORHA ([9]; 250 g ai/ha) | Post-emerge Herbicidal Activity IPOHE ([10]; 63 g ai/ha) | Post-emerge Herbicidal Activity ABUTH ([11]; 63 g ai/ha) | Post-emerge Herbicidal Activity ECHCG ([12]; 63 g ai/ha) | Post-emerge Herbicidal Activity ECHCG ([12]; 250 g ai/ha) | Pre-emerge Herbicidal Activity CASOB (phytotoxicity rating, scale 0-100) ([13]; 63 g ai/ha) | Pre-emerge Herbicidal Activity CASOB (phytotoxicity rating, scale 0-100) ([13]; 250 g ai/ha) | Pre-emerge Herbicidal Activity SETVI (phytotoxicity rating, scale 0-100) ([14]; 63 g ai/ha) | Pre-emerge Herbicidal Activity SETVI (phytotoxicity rating, scale 0-100) ([14]; 250 g ai/ha) | Pre-emerge Herbicidal Activity AMBEL (phytotoxicity rating, scale 0-100) ([15]; 63 g ai/ha) | Pre-emerge Herbicidal Activity AMBEL (phytotoxicity rating, scale 0-100) ([15]; 250 g ai/ha) | Pre-emerge Herbicidal Activity DIGSA (phytotoxicity rating, scale 0-100) ([16]; 63 g ai/ha) | Pre-emerge Herbicidal Activity DIGSA (phytotoxicity rating, scale 0-100) ([16]; 250 g ai/ha) | Pre-emerge Herbicidal Activity CHEAL (phytotoxicity rating, scale 0-100) ([17]; 63 g ai/ha) | Pre-emerge Herbicidal Activity SORHA (phytotoxicity rating, scale 0-100) ([18]; 63 g ai/ha) | Pre-emerge Herbicidal Activity SORHA (phytotoxicity rating, scale 0-100) ([18]; 250 g ai/ha) | Pre-emerge Herbicidal Activity IPOHE (phytotoxicity rating, scale 0-100) ([19]; 63 g ai/ha) | Pre-emerge Herbicidal Activity IPOHE (phytotoxicity rating, scale 0-100) ([19]; 250 g ai/ha) | Pre-emerge Herbicidal Activity ABUTH (phytotoxicity rating, scale 0-100) ([20]; 63 g ai/ha) | Pre-emerge Herbicidal Activity ABUTH (phytotoxicity rating, scale 0-100) ([20]; 250 g ai/ha) | Pre-emerge Herbicidal Activity ECHCG (phytotoxicity rating, scale 0-100) ([21]; 63 g ai/ha) | Pre-emerge Herbicidal Activity ECHCG (phytotoxicity rating, scale 0-100) ([21]; 250 g ai/ha) | Pre-emerge Herbicidal Activity AMARE (phytotoxicity rating, scale 0-100) ([22]; 63 g ai/ha) | Pre-emerge crop damage RICE (phytotoxicity rating, scale 0-100) ([23]; 63 g ai/ha) | Pre-emerge crop damage RICE (phytotoxicity rating, scale 0-100) ([23]; 250 g ai/ha) | Pre-emerge crop damage CORN (phytotoxicity rating, scale 0-100) ([24]; 63 g ai/ha) | Pre-emerge crop damage CORN (phytotoxicity rating, scale 0-100) ([24]; 250 g ai/ha)
80: Pre-emerge Herbicidal Activity AMARE (phytotoxicity rating, scale 0-100) ([22]; 250 g ai/ha)
90: Pre-emerge Herbicidal Activity CHEAL (phytotoxicity rating, scale 0-100) ([17]; 250 g ai/ha)
30: Post-emerge Herbicidal Activity IPOHE ([10]; 250 g ai/ha)
40: Post-emerge Herbicidal Activity ABUTH ([11]; 250 g ai/ha)
20: Post-emerge Herbicidal Activity AMARE ([6]; 250 g ai/ha) | Post-emerge Herbicidal Activity CHEAL ([8]; 250 g ai/ha)

CCCc1ccc(C(=O)N(C(=O)c2ccc(CCC)cc2)c2c(OC)c(Cl)cc(F)c2-n2c(=O)cc(C(F)(F)F)n(C)c2=O)cc1 [2-29]
15: Pre-emerge crop damage CORN (phytotoxicity rating, scale 0-100) ([24]; 250 g ai/ha)
65: Pre-emerge crop damage RICE (phytotoxicity rating, scale 0-100) ([23]; 250 g ai/ha)
0: Post-emerge Herbicidal Activity DIGSA ([7]; 63 g ai/ha) | Post-emerge Herbicidal Activity SORHA ([9]; 63 g ai/ha) | Post-emerge Herbicidal Activity ECHCG ([12]; 63 g ai/ha) | Pre-emerge Herbicidal Activity AMBEL (phytotoxicity rating, scale 0-100) ([15]; 63 g ai/ha) | Pre-emerge Herbicidal Activity SORHA (phytotoxicity rating, scale 0-100) ([18]; 63 g ai/ha) | Pre-emerge Herbicidal Activity ECHCG (phytotoxicity rating, scale 0-100) ([21]; 63 g ai/ha) | Pre-emerge crop damage CORN (phytotoxicity rating, scale 0-100) ([24]; 63 g ai/ha)
40: Post-emerge Herbicidal Activity RICE (crop damage) ([1]; 63 g ai/ha) | Post-emerge Herbicidal Activity CASOB ([3]; 250 g ai/ha) | Pre-emerge crop damage RICE (phytotoxicity rating, scale 0-100) ([23]; 63 g ai/ha)
20: Post-emerge Herbicidal Activity CASOB ([3]; 63 g ai/ha) | Post-emerge Herbicidal Activity SETVI ([4]; 63 g ai/ha) | Post-emerge Herbicidal Activity DIGSA ([7]; 250 g ai/ha) | Post-emerge Herbicidal Activity ECHCG ([12]; 250 g ai/ha)
50: Post-emerge Herbicidal Activity SETVI ([4]; 250 g ai/ha) | Post-emerge Herbicidal Activity AMBEL ([5]; 63 g ai/ha) | Pre-emerge Herbicidal Activity ECHCG (phytotoxicity rating, scale 0-100) ([21]; 250 g ai/ha)
10: Post-emerge Herbicidal Activity CORN (crop damage) ([2]; 63 g ai/ha) | Post-emerge Herbicidal Activity SORHA ([9]; 250 g ai/ha)
100: Post-emerge Herbicidal Activity AMARE ([6]; 250 g ai/ha) | Post-emerge Herbicidal Activity IPOHE ([10]; 250 g ai/ha) | Post-emerge Herbicidal Activity ABUTH ([11]; 63 g ai/ha) | Post-emerge Herbicidal Activity ABUTH ([11]; 250 g ai/ha) | Pre-emerge Herbicidal Activity CASOB (phytotoxicity rating, scale 0-100) ([13]; 250 g ai/ha) | Pre-emerge Herbicidal Activity SETVI (phytotoxicity rating, scale 0-100) ([14]; 63 g ai/ha) | Pre-emerge Herbicidal Activity SETVI (phytotoxicity rating, scale 0-100) ([14]; 250 g ai/ha) | Pre-emerge Herbicidal Activity CHEAL (phytotoxicity rating, scale 0-100) ([17]; 63 g ai/ha) | Pre-emerge Herbicidal Activity CHEAL (phytotoxicity rating, scale 0-100) ([17]; 250 g ai/ha) | Pre-emerge Herbicidal Activity IPOHE (phytotoxicity rating, scale 0-100) ([19]; 250 g ai/ha) | Pre-emerge Herbicidal Activity ABUTH (phytotoxicity rating, scale 0-100) ([20]; 63 g ai/ha) | Pre-emerge Herbicidal Activity ABUTH (phytotoxicity rating, scale 0-100) ([20]; 250 g ai/ha) | Pre-emerge Herbicidal Activity AMARE (phytotoxicity rating, scale 0-100) ([22]; 63 g ai/ha) | Pre-emerge Herbicidal Activity AMARE (phytotoxicity rating, scale 0-100) ([22]; 250 g ai/ha)
60: Post-emerge Herbicidal Activity RICE (crop damage) ([1]; 250 g ai/ha) | Post-emerge Herbicidal Activity AMBEL ([5]; 250 g ai/ha) | Pre-emerge Herbicidal Activity CASOB (phytotoxicity rating, scale 0-100) ([13]; 63 g ai/ha) | Pre-emerge Herbicidal Activity AMBEL (phytotoxicity rating, scale 0-100) ([15]; 250 g ai/ha) | Pre-emerge Herbicidal Activity DIGSA (phytotoxicity rating, scale 0-100) ([16]; 63 g ai/ha)
25: Post-emerge Herbicidal Activity CORN (crop damage) ([2]; 250 g ai/ha)
75: Post-emerge Herbicidal Activity IPOHE ([10]; 63 g ai/ha)
90: Post-emerge Herbicidal Activity AMARE ([6]; 63 g ai/ha) | Post-emerge Herbicidal Activity CHEAL ([8]; 250 g ai/ha) | Pre-emerge Herbicidal Activity DIGSA (phytotoxicity rating, scale 0-100) ([16]; 250 g ai/ha)
30: Pre-emerge Herbicidal Activity IPOHE (phytotoxicity rating, scale 0-100) ([19]; 63 g ai/ha)
80: Post-emerge Herbicidal Activity CHEAL ([8]; 63 g ai/ha) | Pre-emerge Herbicidal Activity SORHA (phytotoxicity rating, scale 0-100) ([18]; 250 g ai/ha)
